Columns and labels:
PRAK = target: T1, PRAK (Homo sapiens, UniProt Q8IW41); assay: HTS ATP-utilizing enzyme assay, off-chip mobility-shift (Caliper HTS 250); assay type: biochemical; conditions: test compound 10 μM, kinase listed = active (greater than six-sigma from the mean activity of inactive compounds)
T1 sequence (Q8IW41 1-473): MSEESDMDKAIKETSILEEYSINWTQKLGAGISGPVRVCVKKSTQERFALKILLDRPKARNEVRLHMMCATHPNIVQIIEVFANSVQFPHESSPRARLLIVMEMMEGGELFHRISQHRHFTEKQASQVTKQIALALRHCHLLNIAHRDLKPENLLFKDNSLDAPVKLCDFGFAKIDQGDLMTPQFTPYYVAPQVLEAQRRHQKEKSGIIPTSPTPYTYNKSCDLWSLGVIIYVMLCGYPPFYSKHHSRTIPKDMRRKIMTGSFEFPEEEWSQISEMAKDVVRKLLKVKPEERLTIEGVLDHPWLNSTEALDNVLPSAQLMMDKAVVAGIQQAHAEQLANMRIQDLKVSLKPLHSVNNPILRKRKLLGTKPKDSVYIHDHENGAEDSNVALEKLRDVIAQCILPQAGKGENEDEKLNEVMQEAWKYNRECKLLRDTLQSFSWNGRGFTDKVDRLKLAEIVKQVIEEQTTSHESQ
Outline: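 Test compound at 10 μM final was incubated with kinase and peptide substrate in HEPES pH 7.5 buffer with Triton X-100 and BSA for 2.5 hrs at 20° C. to 22° C., then stopped with EDTA. Inhibition came from the substrate-to-phosphorylated-product ratio on a microfluidic mobility-shift read. EDTA wells served as 100% control.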

MAPKAPK2 = MAPKAPK2 (Homo sapiens, UniProt P49137); assay: as above; assay type: biochemical; conditions: test compound 10 μM, kinase listed = active (greater than six-sigma from the mean activity of inactive compounds)
Chain of MAPKAPK2 (P49137 whole entry): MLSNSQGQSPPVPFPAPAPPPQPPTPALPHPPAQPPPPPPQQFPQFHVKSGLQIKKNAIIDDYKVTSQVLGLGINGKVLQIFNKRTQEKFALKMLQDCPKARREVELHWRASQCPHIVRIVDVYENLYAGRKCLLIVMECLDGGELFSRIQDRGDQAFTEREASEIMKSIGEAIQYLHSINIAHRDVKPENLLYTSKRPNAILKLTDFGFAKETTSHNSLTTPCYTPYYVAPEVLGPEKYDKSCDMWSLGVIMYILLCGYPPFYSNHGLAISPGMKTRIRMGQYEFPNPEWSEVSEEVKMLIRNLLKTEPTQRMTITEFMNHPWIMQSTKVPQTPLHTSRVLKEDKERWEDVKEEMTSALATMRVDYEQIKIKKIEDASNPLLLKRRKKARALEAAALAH
Outline: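 Single-point screen of test compound at 10 μM against MAPKAPK2 with peptide substrate in HEPES pH 7.5 buffer (Triton X-100, BSA), 2.5 h at 20-22 °C. Substrate-to-phosphopeptide ratio was read by off-chip microfluidic mobility shift; EDTA and DMSO wells defined 100% and 0% controls, hits by six-sigma limits.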

In the case of `CN1CCN(c2ccc(Nc3ccnc4ccc(-c5ccc(O)cc5)cc34)cc2)CC1` [4-(4-(4-(4-methylpiperazin-1-yl)phenylamino)quinolin-6-yl)phenol], the Activity (PRAK) was “PRAK” and the Activity (MAPKAPK2) was “MAPKAPK2”.
For `COc1ccc(-c2ccc3nccc(N(C)c4ccc(N5CCN(C)CC5)cc4)c3c2)cc1` [6-(4-methoxyphenyl)-N-methyl-N-(4-(4-methylpiperazin-1-yl)phenyl)quinolin-4-amine], the Activity (MAPKAPK2) was “MAPKAPK2”.
With `CN1CCN(c2ccc(Nc3ccnc4ccc(-c5ccc(F)cc5)cc34)cc2)CC1` [6-(4-fluorophenyl)-N-(4-(4-methylpiperazin-1-yl)phenyl)quinolin-4-amine] the Activity (PRAK) was “PRAK” and the Activity (MAPKAPK2) was “MAPKAPK2”.
`CN1CCN(c2ccc(Nc3ccnc4ccc(-c5cccc6ccccc56)cc34)cc2)CC1` [N-(4-(4-methylpiperazin-1-yl)phenyl)-6-(naphthalen-1-yl)quinolin-4-amine] was tested, and the Activity (PRAK) was “PRAK” and the Activity (MAPKAPK2) was “MAPKAPK2”.
`CN1CCN(c2ccc(Nc3ccnc4ccc(-c5ccc6ccccc6c5)cc34)cc2)CC1` [N-(4-(4-methylpiperazin-1-yl)phenyl)-6-(naphthalen-2-yl)quinolin-4-amine] was tested, and the Activity (PRAK) was “PRAK” and the Activity (MAPKAPK2) was “MAPKAPK2”.
With `Cc1ccccc1-c1ccc2nccc(Nc3ccc(N4CCN(C)CC4)cc3)c2c1` [N-(4-(4-methylpiperazin-1-yl)phenyl)-6-o-tolylquinolin-4-amine] the Activity (PRAK) was “PRAK” and the Activity (MAPKAPK2) was “MAPKAPK2”.
With `c1ccc(-c2ccc3nccc(Nc4ccc(N5CCNCC5)cc4)c3c2)cc1` [6-phenyl-N-(4-(piperazin-1-yl)phenyl)quinolin-4-amine] the Activity (PRAK) was “PRAK” and the Activity (MAPKAPK2) was “MAPKAPK2”.
With `CN1CCN(c2ccc(Nc3ccnc4ccc(-c5ccncc5)cc34)cc2)CC1` [N-(4-(4-methylpiperazin-1-yl)phenyl)-6-(pyridin-4-yl)quinolin-4-amine] the Activity (PRAK) was “PRAK”.
In the case of `COc1ccc(-c2ccc3nccc(Nc4ccc(N5CCNCC5)cc4)c3c2)cc1` [6-(4-methoxyphenyl)-N-(4-(piperazin-1-yl)phenyl)quinolin-4-amine], the Activity (PRAK) was “PRAK” and the Activity (MAPKAPK2) was “MAPKAPK2”.
